One compound from patent US20060094676A1, “Compositions and methods for treating cancer using compositions comprising an inhibitor of endothelin receptor activity” (priority 2004, published 2006) can be followed below.

For this experiment, the system named is VEGF. The experiment in a line: Real-time RT-PCR of VEGF transcripts. It is filed as cell-based, human. The conditions noted are these: BQ123 in combination with BQ788; melanoma cell lines of the study; data not shown. As for the experimental part: Equal amounts of RNA from cells that were treated with BQ788 for 3 days were subjected to real-time RT-PCR analysis for the detection VEGF (A), HIF-1α (B) and Gravin (C) transcripts. Differences in expression levels are shown as x fold change and are statistically significant (p<0.05) unless a column in marked as non significant (N.S.). Sections of two representative tumors derived from a human melanoma cell line grown in nude mice and injected either with vehicle (D) or BQ788 (E) were stained with anti CD-31 to highlight blood vessels (brown staining, Lahav et al, 1999).
RNA was prepared from the different cell lines in different culture conditions using SV total RNA isolation kit (Promega) according to the manufacturer's protocol. For each sample RNA concentration was determined using the total RNA nano procedure of an Agilent bioanalyzer. A stock of SK-MEL-28 RNA aliquots was prepared containing 10, 20, 50, 100, 200, 500 and 1000 ng/12 μl for use as a standard curve and kept in −80° C. For the experimental unknown samples, a stock of 100 ng/12 μl RNA aliquots from each cell line and condition was prepared and stored at −80° C. For each real-time experiment one series of standard curve and unknown experimental series of aliquots was put on ice for use. Complementary DNA was prepared by adding to each tube 0.5 μl of random hexamers (Promega) and 1 μl of 10 mM dNTP mix (Promega) and incubating at 65° C. for 5 min. 4 μl of 5× M-MLV buffer (Promega), 1 μl of the RNase inhibitor RNasin (Promega) and 1 μl of M-MLV RT RNase H (Promega) were then added and the solution was incubated at 42° C. for 50 min followed by 15 min at 70° C. For real time reactions 15 μl of each cDNA sample were transferred to 3 wells in a 386 well plate. To each well we added 10 μl of TaqMan universal PCR master mix (Applied Biosystems), 1 μl of primers+probe mix (Assays-on-Demand from Applied Biosystems: EDNRB Hs00240747, BCL-2A1 Hs00187845, PARP-3 Hs00154151, VEGF Hs00173626, HIF-1α Hs00153153 and Gravin Hs00374507) and 4 μl of nuclease free water (Promega). Wells containing water instead of cDNA served as negative controls. The samples were subjected to 40 cycles of 15 sec at 95° C. and 1 min at 60° C. A standard curve of Ct versus RNA quantity was established and accordingly the Ct in the unknown samples was correlated to quantity of transcript.
Real-time PCR analysis confirmed that VEGF expression levels increased 18-fold in BQ788 treated LN-met cells and 65-fold in SK-MEL-28 cells, compared to only 2-fold in primary melanoma, and no change in the Cut-met line (FIG. 5). The changes in VEGF expression levels can be explained, at least in part, by changes in the expression levels of its known regulator hypoxia inducible factor-1 oc (HIF-1α) (Maxwell, et al., Oxygen sensors and angiogenesis, Semin. Cell Dev. Biol., 13:29-37 (2002)). […]

Non-standard residues stand in square brackets, D forms with d. Residues, ends and D or L forms follow the SMILES beside them.

Turning to `CC(C)C[C@@H]1NC(=O)[C@@H](C(C)C)NC(=O)[C@@H]2CCCN2C(=O)[C@@H](CC(=O)O)NC(=O)[C@@H](Cc2c[nH]c3ccccc23)NC1=O` [BQ123] (cyclo(L[dW][dD]P[dV])), the “VEGF RNA levels compared to BQ788 alone” value is “did not result in changes”.
